Test system: TNFα-Freisetzung
Experiment: Inhibition of TNFα release after LPS stimulation of human whole blood (ELISA)
Format: cell-based
Details: for inhibition at 0.01 µM / inhibition at 0.1 µM: Homo sapiens, 24 h, read-out: TNFα-Freisetzung hemmen
Text: Methodenbeschreibung der Hemmung der TNFα Freisetzung nach LPS Stimulation von humanem Vollblut
Die Stimulierung isolierter Leukozyten für die Freisetzung von Zytokinen kann auf verschiedenen Wegen erfolgen. Lipopolysaccharide (LPS) stellen einen Stimulus für die Untersuchung der Freisetzung von TNFα dar. LPS ist Bestandteil bakterieller Zellwände und wird beim Abtöten der Bakterien (durch Antibiotika oder das natürliche Immunsystem) freigesetzt. LPS stimuliert insbesondere die Aktivität phagozytierender Leukozyten (Gewebsmakrophagen, Granulozyten, Monozyten) und verursacht die Infiltration von Leukozyten vom peripheren Blut in das betroffene Gewebe. Ein Zytokin von besonderer Bedeutung für diese Mechanismen ist TNFα, das in großen Mengen durch die betroffenen Zellen sezerniert wird. Hauptquelle dabei sind Monozyten und Makrophagen. TNFα initiiert und prolongiert den Entzündungsprozess im Zusammenspiel mit anderen Mediatoren.
Für die Untersuchung des Effektes auf die LPS-induzierte TNFα-Freisetzung wurde eine Methode verwendet, die von MARX et al. (Marx D, Tassabehji M, Heer S, Hüttenbrink KB, Szelenyi I (2002) Pulmonary Pharmacology & Therapeutics 15 7-15) beschrieben wurde. Die Methode in Kürze: Humanes Blut wurde von verschiedenen Spendern entnommen, durch Zusatz von 10 mM Na-Citrat ungerinnbar gemacht und 1:5 mit RPMI 1640 Zellkulturmedium verdünnt. Die Testsubstanzen wurden den Blutproben in verschiedenen Konzentrationen zugefügt. 15 Minuten später wurden die Leukozyten durch Zusatz von Lipopolysacchariden (LPS) aus Salmonella abortus equi in einer Endkonzentration von 1µg/ml stimuliert. Nach Inkubation der Testansätze für 24 Stunden bei 37°C. und unter 5% CO2 in wassergesättigter Luft, wurde das Blut zentrifugiert und die Konzentration an TNFα im zellfreien Überstand unter Verwendung eines käuflichen ELISA (BD Biosciences) nach Angaben des Herstellers exakt vermessen.

Structure (SMILES): CCc1nc2c(sc3nc(-c4ccccc4)cc(C)c32)c(=O)[nH]1 [2-Ethyl-9-methyl-7-phenyl-pyrido[3',2':4,5]thieno[3,2-d]pyrimidin-4-on]
- inhibition at 0.01 µM (bei 10nM): > 20%

Structure (SMILES): Cc1cc(C)c2c(n1)sc1c(=O)[nH]c(=O)[nH]c12 [7,9-Dimethyl-pyrido[3',2':4,5]thieno[3,2-d]pyrimidin-2,4-dion]
- inhibition at 0.01 µM (bei 10nM): > 20%

Structure (SMILES): O=c1[nH]c(=O)c2sc3nc(-c4ccccc4)cc(-c4ccccc4)c3c2[nH]1 [7,9-Diphenyl-pyrido[3',2':4,5]thieno[3,2-d]pyrimidin-2,4-dion]
- inhibition at 0.1 µM (bei 100nM): > 10%

Structure (SMILES): COc1ccc(-c2cc(C)c3c(n2)sc2c(=O)[nH]c(=O)[nH]c23)cc1OC [7-(3,4-Dimethoxyphenyl)-9-methyl-pyrido[3',2':4,5]thieno[3,2-d]pyrimidin-2,4-dion]
- inhibition at 0.01 µM (bei 10nM): > 20%

Structure (SMILES): Cc1nc2c(sc3nc(-c4ccc(Br)cc4)cc(C)c32)c(=O)[nH]1 [7-(4-Brom-phenyl)-2,9-dimethyl pyrido[3',2':4,5]thieno[3,2-d]pyrimidin-4(3H)-on]
- TNFα-Freisetzung hemmen (bei 100nM): > 10%

Structure (SMILES): Cc1cc(-c2ccc(F)cc2)nc2sc3c(=O)[nH]c(=O)[nH]c3c12 [7-(4-Fluorphenyl)-9-methyl-pyrido[3',2':4,5]thieno[3,2-d]pyrimidin-2,4-dion]
- TNFα-Freisetzung hemmen (bei 10nM): > 20%

Structure (SMILES): COc1ccc(-c2cc(C)c3c(n2)sc2c(=O)[nH]c(=O)[nH]c23)cc1 [7-(4-Methoxyphenyl)-9-methyl-pyrido[3',2':4,5]thieno[3,2-d]pyrimidin-2,4-dion]
- inhibition at 0.01 µM (bei 10nM): > 20%

Structure (SMILES): CCCc1nc2c(sc3nc(-c4ccccc4)cc(-c4cccnc4)c32)c(=O)[nH]1 [7-Phenyl-2-n-propyl-9-(pyrid-3-yl)-pyrido[3',2':4,5]thieno[3,2-d]pyrimidin-4(3H)-on]
- inhibition at 0.01 µM (bei 10nM): > 20%

Structure (SMILES): O=C(O)c1nc2c(sc3nc(-c4ccccc4)ccc32)c(=O)[nH]1 [7-Phenyl-pyrido[3',2':4,5]thieno[3,2-d]pyrimidin-4(3H)-on-2-carbonsäure]
- TNFα-Freisetzung hemmen (bei 10nM): > 20%

Structure (SMILES): CCOC(=O)c1nc2c(sc3nc(-c4ccccc4)ccc32)c(=O)[nH]1 [7-Phenyl-pyrido[3',2':4,5]thieno[3,2-d]pyrimidin-4(3H)-on-2-carbonsäureethylester]
- TNFα-Freisetzung hemmen (bei 100nM): > 10%

Structure (SMILES): CSc1nc2c(sc3nc(-c4ccccc4)cc(C)c32)c(=O)[nH]1 [9-Methyl-2-methylthio-7-phenyl-pyrido[3',2':4,5]thieno[3,2-d]pyrimidin-4(3H)-on]
- inhibition at 0.1 µM (bei 100nM): > 10%

Structure (SMILES): Cc1cc(-c2ccccc2)nc2sc3c(=O)[nH]c(=O)[nH]c3c12 [9-Methyl-7-phenyl-pyrido[3',2':4,5]thieno[3,2-d]pyrimidin-2,4-dion]
- inhibition at 0.01 µM (bei 10nM): > 20%

Structure (SMILES): Cc1c(-c2ccc([N+](=O)[O-])cc2)c(-c2ccccc2)nc2sc3c(=O)[nH]c(=O)[nH]c3c12 [9-Methyl-8-(4-nitrophenyl)-7-phenyl-pyrido[3',2':4,5]thieno[3,2-d]pyrimidin-2,4(1H,3H)-dion]
- inhibition at 0.1 µM (bei 100nM): > 10%

From EP1619197A1, “Substituted Pyrido[3',2':4,5]thieno[3,2-d]pyrimidin-2,4(1H,3H)diones and -4(3H)ones as well as Pyrido[3',2':4,5]furo[3,2-d]-pyrimidin-2,4(1H,3H)diones und -4(3H)ones as inhibitors of TNF-alpha release” (Curacyte Discovery GmbH, priority 2004, dated 2006)
